This passage reports melting point, IC50 and viability results from paper PMC9181938, “Fluorinated Analogues of Lepidilines A and C: Synthesis and Screening of Their Anticancer and Antiviral Activity” (Molecules, 2022).

Counter-ions that a name gives are not always drawn. Like-named read-outs stand apart in the source and are kept apart here.

Data set [1] concerns Human herpesvirus 5 (HCMV). The experiment in a line: Antiviral activity assay (0.1–1000 µM), IC50, plaque reduction. Format: cell-based. The note with it: Human betaherpesvirus 5, 20 PFU/well. How it is done: (§1) Antiviral properties of compounds 1e–1g, 1e[PF6], 8a–8d, and 9a were assessed against five viruses: Human herpesvirus 1 (HSV-1, VR-539), Human parainfluenza virus type 3 (HPIV-3, VR-93), Human adenovirus 5 (AdV5, VR-5), Human herpesvirus 5 (HCMV, VR-977), and Encephalomyocarditis virus (EMCV, VR-1479). Viruses were purchased from the American Type Culture Collection (ATCC, Manassas, VA, USA).
(§2) All tested compounds were dissolved in DMSO (dimethyl sulfoxide, Sigma-Aldrich, Darmstadt, Germany) and then suspended in Minimum Essential Medium (MEM; Sigma-Aldrich, Darmstadt, Germany) supplemented with 2% heat-inactivated fetal bovine serum (FBS; Sigma-Aldrich, Darmstadt, Germany), 2 mM L-glutamine (Sigma-Aldrich, Darmstadt, Germany), and 100 units/mL penicillin G with […] streptomycin (Sigma-Aldrich, Darmstadt, Germany).
(§3) Investigated cells were propagated in Minimum Essential Medium (MEM; Sigma-Aldrich, Darmstadt, Germany) supplemented with 10% heat-inactivated fetal bovine serum (FBS; Sigma-Aldrich, Darmstadt, Germany) and 100 units/mL penicillin G with […] streptomycin (Sigma-Aldrich, Darmstadt, Germany). After reaching 80–90% confluency, cells were harvested with trypsin (Life Technologies, Warsaw, Poland) and seeded into 96-well microplates at 2 × 10^5 cells/mL after overnight incubation of cells at 37 °C in a humidified atmosphere containing 5% CO2.
(§4) The culture medium was removed from confluent cells grown in 96-well microplates, and the cells were inoculated with virus solutions in MEM supplemented with 2% FBS and antibiotics (HSV-1 MOI 0.005, 1000 virions/mL; HPIV-3 MOI 0.01, 2000 virions/mL; AdV5 MOI 0.005, 1000 virions/mL; EMCV 0.005, 1000 virions/mL; HCMV 20 PFU/well (plaque-forming units per well). After a 1-h (HSV-1, HPIV-3, AdV5, and EMCV) or 2-h adsorption period (HCMV), residual viral particles were removed, and infected cells were further incubated with MEM supplemented with 2% FBS containing compound concentrations in the range from 0.1 to 1000 µM [38]. All experiments were carried out in triplicate. The cell monolayers were incubated with the investigated compounds at 37 °C in a humidified atmosphere containing 5% CO2 until a cytopathic effect (CPE) was visible. Viral infection was evaluated by the MTT assay (as described previously) or plaque reduction assay. HCMV plaques were counted under an inverted microscope, Olympus IX73 (Olympus, Tokyo, Japan). Antiviral activity was expressed as the concentration required to reduce the number of viral plaques to 50% of the control (virus-infected but untreated).

Data set [2] has as its system Human parainfluenza virus type 3 (HPIV-3). The experiment in a line: Antiviral activity assay (0.1–1000 µM), IC50. The note with it: Human respirovirus 3, HPIV-3, MOI 0.01; read-out: IC50 HPIV-3. Format: cell-based. The method, then: as §1, §2, §3, §4
Data set [3] concerns Encephalomyocarditis virus (EMCV). The experiment in a line: Antiviral activity assay (0.1–1000 µM), IC50. The conditions noted are these: Cardiovirus A, MOI 0.005, read-out: IC50 EMCV. Format: cell-based. The method, then:
as §1, §2, §3, §4

Data set [4] concerns Human adenovirus 5 (AdV5). The experiment in a line: Antiviral activity assay (0.1–1000 µM), IC50. The data set is classed as cell-based. The conditions noted are these: Human mastadenovirus C; AdV5, MOI 0.005; read-out: IC50 AdV5. How it is done: as §1, §2, §3, §4
For data set [5], the system named is Human herpesvirus 1 (HSV-1). Briefly: Antiviral activity assay (0.1–1000 µM), IC50. Format: cell-based. The note with it: Human alphaherpesvirus 1; HSV-1, MOI 0.005. How it is done:
as §1, §2, §3, §4

A short description of data set [6]: Cytotoxicity screening at 10 µM (MTT). The data set is classed as cell-based, Cercopithecus aethiops. The note with it: Cercopithecus aethiops, Vero cells, read-out: Cell line (viability %) Vero.
Data set [7] in a line: Cytotoxicity screening at 10 µM (MTT). The data set is classed as cell-based, Human. The note with it: human, MRC-5 cells, read-out: Cell line (viability %) MRC-5.
Data set [8] deals with Human herpesvirus 5 (HCMV). The experiment in a line: Antiviral screening at 10 µM, plaque reduction. The data set is classed as cell-based. The conditions noted are these: Human betaherpesvirus 5, antiviral screening, HCMV-infected cells, read-out: Cell line (viability %) HCMV. How it is done: (§5) Antiviral properties of compounds 1a, 1c, 1a[PF6], 1c[PF6], 9b[PF6], 9c[PF6], 10a–10d, 2a, and 2b were assessed against five viruses: Human herpesvirus 1 (HSV-1, VR-539), Human parainfluenza virus type 3 (HPIV-3, VR-93), Human adenovirus 5 (AdV5, VR-5), Human herpesvirus 5 (HCMV, VR-977), and Encephalomyocarditis virus (EMCV, VR-1479). Viruses were purchased from the American Type Culture Collection (ATCC, Manassas, VA, USA).
as §2
(§6) Vero, LLC-MK2, NCTC clone 929, MRC-5, and HeLa cells were propagated in Minimum Essential Medium (MEM; Sigma-Aldrich, Darmstadt, Germany) supplemented with 10% heat-inactivated fetal bovine serum (FBS; Sigma-Aldrich, Darmstadt, Germany) and 100 units/mL penicillin G with […] streptomycin (Sigma-Aldrich, Darmstadt, Germany). Upon reaching 80–90% confluency, cells were harvested with 0.25% trypsin in 1 mM EDTA (Life Technologies, Warsaw, Poland) and seeded onto 96-well microplates at 2 × 10^5 cells/mL. After overnight incubation of cells at 37 °C in a humidified atmosphere containing 5% CO2, the culture medium was removed, and cells were inoculated with the respective virus solution in MEM supplemented with 2% FBS and antibiotics (HSV-1 MOI 0.005, 1000 virions/mL; HPIV-3 MOI 0.01, 2000 virions/mL; AdV5 MOI 0.005, 1000 virions/mL, EMCV MOI 0.005, 1000 virions/mL, HCMV 20 PFU (plaque forming units) per well). After a 1-h (HSV-1, HPIV-3, AdV5, and EMCV) or 2-h adsorption period (HCMV), the residual virus was removed, and the infected cells were further incubated with a 100 μL freshly prepared solution of tested compounds diluted with a maintenance medium supplemented with 2% FBS to obtain compound concentrations of 10 µM. The final concentration of DMSO in the medium was 0.1%. All experiments were carried out in triplicate. The cells monolayers were incubated with the compounds at 37 °C in a humidified atmosphere containing 5% CO2 until the typical cytopathic effect (CPE) was visible. Viral infection was evaluated by the MTT assay or plaque reduction assay (HCMV). After incubation with drugs, the cells were treated with 3-(4,5-dimethylthiazol-2-yl)-2,5-diphenyltetrazolium bromide dye solution (MTT, Sigma-Aldrich, Darmstadt, Germany) (25 μL, 5 mg/mL) for 2 h and lysed with solvent solution (100 μL) containing: DMF (Sigma-Aldrich, Darmstadt, Germany) (45 mL), SDS (Sigma-Aldrich, Darmstadt, Germany) (13.5 g), and distilled water (55 mL). After overnight incubation at 37 °C, the optical density at 550 nm and a reference wavelength of 670 nm were measured on a microplate spectrophotometer, Varioskan Lux (Thermo Fisher Scientific, Waltham, MA, USA). The number of HCMV plaques was counted under an inverted microscope Olympus IX73 (Olympus, Tokyo, Japan).

Data set [9] deals with Human parainfluenza virus type 3 (HPIV-3). The experiment in a line: Antiviral screening at 10 µM. The conditions noted are these: Human respirovirus 3, antiviral screening, HPIV-3-infected cells, read-out: Cell line (viability %) HPIV-3. Format: cell-based. How it is done: as §5, §2, §6
Data set [10] concerns Encephalomyocarditis virus (EMCV). The experiment in a line: Antiviral screening at 10 µM. The data set is classed as cell-based. The conditions noted are these: Cardiovirus A, EMCV-infected cells, read-out: Cell line (viability %) EMCV. How it is done:
as §5, §2, §6

The test system of data set [11] is Human adenovirus 5 (AdV5). The experiment in a line: Antiviral screening at 10 µM. Format: cell-based. The note with it: Human mastadenovirus C, AdV5-infected cells, read-out: Cell line (viability %) AdV5. How it is done:
as §5, §2, §6

Data set [12] has as its system Human herpesvirus 1 (HSV-1). Briefly: Antiviral screening at 10 µM. The data set is classed as cell-based. The conditions noted are these: Human alphaherpesvirus 1, antiviral screening, HSV-1-infected cells, read-out: Cell line (viability %) HSV-1. The method, then: as §5, §2, §6
The nature of data set [13]: Cytotoxicity screening at 10 µM (MTT). The note with it: human, HeLa cells, read-out: Cell line (viability %) HeLa. The data set is classed as cell-based, Human.
Data set [14] is described as follows: Cytotoxicity screening at 10 µM (MTT). Format: cell-based, Macaca mulatta. The note with it: Macaca mulatta, LLC-MK2 cells, read-out: Cell line (viability %) LLC-MK2.
Data set [15] in a line: Cytotoxicity screening at 10 µM (MTT). The data set is classed as cell-based, Mus musculus. The conditions noted are these: Mus musculus, NCTC clone 929 cells, read-out: Cell line (viability %) NCTC clone 929.

Regarding `FC(F)(F)c1cccc(Cn2c[n+](OCc3ccccc3)c(-c3ccccc3)c2-c2ccccc2)c1.[Br-]`, the melting point – broadly, the temperature of the solid-liquid transition – is 107 to 110 °C.
`COc1cccc(CO[n+]2cn(Cc3cccc(C(F)(F)F)c3)c(-c3ccccc3)c2-c2ccccc2)c1.[Br-]`: the melting point was 132 to 134 °C.
For the compound `Cc1cc(C)cc(CO[n+]2cn(Cc3cccc(C(F)(F)F)c3)c(-c3ccccc3)c2-c2ccccc2)c1.[Br-]`, the melting point was 156 to 158 °C.
Regarding `Cc1c(C)[n+](Cc2ccccc2)cn1Cc1cccc(F)c1` (as salt: phosphate) [1e[PF6]] [1-Benzyl-3-(3-fluorobenzyl)-4,5-dimethylimidazolium hexafluorophosphate], the melting point lay within 110 to 112 °C.
In the case of `Cc1c(C)[n+](Cc2ccccc2)cn1Cc1cccc(F)c1` [1e[PF6], 1-Benzyl-3-(3-fluorobenzyl)-4,5-dimethylimidazolium hexafluorophosphate], the concentration for half-maximal inhibition (IC50) (commonly the concentration that gives 50% inhibition) in data set [1] is greater than 150 µM; in data set [2], greater than 150 µM; in [3] it was greater than 148 µM; in data set [4], greater than 0.08 µM; in data set [5] it was greater than 56.3 µM.
For the compound `c1ccc(Cn2c[n+](Cc3ccccc3)c(-c3ccccc3)c2-c2ccccc2)cc1` [9b[PF6]], the viability – broadly, the share of living cells, or the viability signal relative to a control – at 48 h, 10 µM in data set [6] came to 6.7%; in [7] it was 12.8%; in data set [13], 6.8%; in [14], 8%; in [15], 4.1%. In addition, the viability at 10 µM was 6.3% in data set [8]; 12% in data set [9]; 9.3% in [10]; 13.9% in data set [11]; 11.7% in data set [12].
On to `COc1cccc(Cn2c[n+](Cc3ccccc3)c(-c3ccccc3)c2-c2ccccc2)c1` [9c[PF6]], for which the viability at 48 h, 10 µM is 6.6% in [6]; 12.6% in data set [7]; 7.1% in [13]; 7.6% in data set [14]; 6.5% in [15]. The viability at 10 µM in data set [8] was 1.9%; in data set [9] it was 12.8%; in [10], 9.4%; in data set [11] it was 14.4%; in data set [12], 13.3%.
On to `c1c[n+](C23CC4CC(CC(C4)C2)C3)cn1C12CC3CC(CC(C3)C1)C2` [Compound 2a, 1,3-diadamantyl imidazolium bromide, reference compound], for which the viability at 48 h, 10 µM turned out to be 7.9% in data set [6]; 73.7% in data set [7]; 23% in data set [13]; 7.8% in data set [14]; 8.9% in [15]. In addition, the viability at 10 µM in [8] came to 9.7%; in data set [9], 8.3%; in data set [10], 7.1%; in data set [11], 50.2%; in data set [12], 13.9%.
As to `c1c[n+](OC23CC4CC(CC(C4)C2)C3)cn1OC12CC3CC(CC(C3)C1)C2` [Compound 2b], the viability at 48 h, 10 µM in data set [6] is 15.2%; in data set [7], 12.7%; in [13], 7.5%; in data set [14], 7.8%; in data set [15], 6.6%. The viability at 10 µM in data set [8] was 2.8%; in [9] it was 8.7%; in [10] it was 9.6%; in data set [11], 17.1%; in data set [12], 14.1%.
`COc1cccc(Cn2c(C)c(C)n(Cc3ccccc3)c2=S)c1` [Compound 10b]: the viability at 48 h, 10 µM in data set [6] came to 29.1%; in data set [7], 100%; in data set [13], 13.3%; in [14], 9.1%; in [15] it was 59%. The viability at 10 µM in data set [8] is 1.9%; in data set [9], 7.9%; in data set [10] it was 8.1%; in [11], 39.5%; in [12], 16.5%.
Take `S=c1n(Cc2ccccc2)c(-c2ccccc2)c(-c2ccccc2)n1Cc1ccccc1` [Compound 10c]: the viability at 48 h, 10 µM in data set [6] amounted to 11.4%; in [7] it was 73.8%; in data set [13], 7.8%; in data set [14], 15.8%; in data set [15], 35.5%. The viability at 10 µM in data set [8] amounted to 7.1%; in [9], 10.9%; in data set [10] it was 8.5%; in data set [11], 16%; in data set [12], 14.7%.
